# Source: patent US4328242A, “α-(3,4,5-Trimethoxyhenzoyl)thiopropionyl-glycine” (Ausoria Farmaceutici S.r.l., priority 1980, dated 1982)
# Where two headings read alike, the source gives them in different places.
# Assays:
# Acute toxicity in rats = assay type: in vivo; details: rat, in vivo; for mortality at 240 h: read-out: % Death; for LD50 at 240 h: 10 days observation, probits, read-out: DL50 mg/kg (Confidential Limits)
# Protocol: (§1) The acute toxicity has been studied with Swiss albino rats and Wistar albino rats and in both instances, animals of both sexes have been used. The product is administered orally and endoperitoneally and the period of observation is ten days after the initial treatment. The values of DL50 by the statistical method with confidential limits up to 95% are calculated by means of the method of probits reported in Table I. Probits is a statistical unit of probable deviation used in biological assays; equal to the normal equivalent deviate increased by 5, used to make all normal equivalent deviation values positive.
# Rats [1] = assay: Acute toxicity in rats; assay type: in vivo; details: 20 tested
# Protocol: as §1
# rabbits [2] = assay: Subchronic toxicity, rectal route; assay type: in vivo; details: eight consecutive weeks
# rats [3] = assay: Chronic toxicity in rats; assay type: in vivo; details: 24 weeks, 125 and 250 mg/kg oral, 200 mg/kg by inhalation
# Protocol: The chronic toxicity of TBPG has been investigated in rats and dogs treated for a period of 24 weeks with 125 mg/kg and 250 mg/kg by the oral route and 200 mg/kg by inhalation.
# New Zealand rabbits = assay: Toxicity in the fetus, rabbits; assay type: in vivo; details: female rabbits, daily oral and subcutaneous, 250 and 500 mg/kg, twenty eight days of gestation
# Source text: Toxicity in the fetus of TBPG has been studied in albino Sprague-Dawley rats and in New Zealand rabbits. In the case of rats both male and female, the treatment has been initiated four weeks prior to coupling and then has been continued only in the females during the twenty days of gestation.
# In the case of female rabbits, the treatment has been carried out during the twenty eight days of gestation.
# guinea pigs = assay: Protective activity in subacute bronchitis induced by inhalation of citric acid; assay type: in vivo; details: 7.5% citric acid inhalation, oral, rectal or inhalation, 50 and 200 mg/kg, two weeks
# rats [4] = assay: Protective action on chronic bronchitis induced by inhalation of SO2; assay type: in vivo; details: SO2 aerosol, 100 and 400 mg/kg oral, rectal and inhalation, two weeks
# Protocol: Bronchopulmonary lesions were induced in the animals by aerosolization of SO2. The animals were then treated for two weeks with TBPG in the dosage of 100 and 400 mg/kg by the oral route, rectal route and by inhalation.
# rabbits [5] = assay: Secretory activity in rabbits (bronchial secretion); assay type: in vivo
# Source text: This activity has been determined using the method described by E. M. Boyd and C. F. Boyd, modified by P. C. Braga, et al described in Bronchial Hypersecretion, 1973. This activity has been determined every hour for a period of four hours by measuring the amount of bronchial secretion derived from the laryngo-tracheal organs and from the tracheo-bronchial organs of rabbits.
# rats [6] = assay: Action on the period of sleep induced by barbiturates; assay type: in vivo; details: rats intoxicated with CCl4; 200 and 400 mg/kg orally, two days; clear correlation between dosage and effect
# Protocol: The activity of TBPG administered for two days in the dose of 200 and 400 mg/kg orally, has been determined on the basis of the reduction of the period of sleep induced by Nembutal on rats intoxicated with CCl4.
# [7] = assay type: in vivo; details: rats, oral route, equimolar doses
# [8] = Isothermic (accelerated) stability according to the method of Garret, TLC; assay type: physicochemical
# Protocol: The tests of accelerated stability have been carried out with the substance in powder form, that is in glass vials, hermetically closed with a plastic screw cap and also with the substance dissolved in water, that is 500 mg in 10 cc in a transparent glass container of 20 cc capacity closed with a plastic screw cap.
# The production of impurities, if any, due to degradation of the substance, has been determined by means of TLC.
# Stability to light = assay type: physicochemical; details: powder form, light of a 60 watt lamp, three months
# Stability to moisture = assay type: physicochemical; details: open vials, 90% relative humidity, a month
# Protocol: Samples of TBPG and MPG have been maintained in open vials at room temperature under conditions of 90% relative humidity and at 50° C. always with 90% relative humidity. After a month of exposure, the following observations have been made.
# [9] = Stability in reducing medium (SO2); assay type: physicochemical; details: 25 mg/ml, sodium bisulfite calculated as SO2, refluxed three hours
# Protocol: In the presence of SO2 --solutions containing 25 mg/ml of TBPG and MPG respectively in the presence of sodium bisulfite calculated as SO2 are warmed and refluxed for a period of three hours.
# Solubility = assay type: physicochemical
# Source text: The structure of the compound is confirmed by analytical and spectroscopic analysis, specifically IR and NMR spectra. The compound is in the form of a white micro-cyrstalline powder, odorless and almost tasteless. It is soluble in a saturated solution of sodium bicarbonate and in other basic solutions. The substance is insoluble in water, soluble in warm ethanol.
# [10] = Clinical tolerance with respect to gastric reactions; details: in vivo
# [11] = with respect to the control animals
compound,measurement,setting,value
"COc1cc(C(=O)SC(C)C(=O)NCC(=O)O)cc(OC)c1OC (stereo not drawn) [TBPG, α-(3,4,5-trimethoxybenzoyl)thiopropionylglycine]",mortality at 240 h,"Acute toxicity in rats; ip, 1500 mg/kg",0%
same,mortality at 240 h,"Acute toxicity in rats; ip, 2000 mg/kg",30%
same,mortality at 240 h,"Acute toxicity in rats; ip, 2500 mg/kg",45%
same,mortality at 240 h,"Acute toxicity in rats; ip, 3000 mg/kg",70%
same,mortality at 240 h,"Acute toxicity in rats; ip, 3500 mg/kg",85%
same,LD50 at 240 h,"Acute toxicity in rats; ip, 95% limits (2483-2887)",2670 mg/kg
same,mortality at 240 h,"Acute toxicity in rats; po, orally, 3000 mg/kg",5%
same,mortality at 240 h,"Acute toxicity in rats; po, orally, 4000 mg/kg",30%
same,mortality at 240 h,"Acute toxicity in rats; po, orally, 5000 mg/kg",45%
same,mortality at 240 h,"Acute toxicity in rats; po, orally, 6000 mg/kg",60%
same,mortality at 240 h,"Acute toxicity in rats; po, orally, 7000 mg/kg",85%
same,LD50 at 240 h,"Acute toxicity in rats; po, orally, 95% limits (4879-5873)",5230 mg/kg
same,No. of Animals Dead,"Rats [1]; i.p., 1500 mg/kg",0
same,No. of Animals Dead,"Rats [1]; i.p., 2000 mg/kg",6
same,No. of Animals Dead,"Rats [1]; i.p., 2500 mg/kg",9
same,No. of Animals Dead,"Rats [1]; i.p., 3000 mg/kg",14
same,No. of Animals Dead,"Rats [1]; i.p., 3500 mg/kg",17
same,No. of Animals Dead,"Rats [1]; orally, 3000 mg/kg",1
same,No. of Animals Dead,"Rats [1]; orally, 4000 mg/kg",6
same,No. of Animals Dead,"Rats [1]; orally, 5000 mg/kg",9
same,No. of Animals Dead,"Rats [1]; orally, 6000 mg/kg",12
same,No. of Animals Dead,"Rats [1]; orally, 7000 mg/kg",17
same,"hematochemical data, hepatic and renal functions, autopsies and macro/microscopic controls of the main organs",rabbits [2]; 400 mg/kg per day,have not shown any variations from the normal
same,behavior and body growth of the animals,rabbits [2]; two suppositories per day equal to 400 mg/kg,has not caused any irregularities
same,"chronic toxicity (symptoms, behavior, deaths, body growth, hematology, hepatic and renal functions, organs)",rats [3],totally innocuous
same,"toxicity in the fetus (deformation, number and weight of living offspring)",New Zealand rabbits,has not induced any deformation in the fetus and has not affected the number and the weight of the living offspring
same,mortality index,guinea pigs,substantially reduced
same,protective action on bronchial conditions (macro and micro examination of the lungs),guinea pigs,effective protective action in proportion to the dose
same,protection of the bronchi and lungs (bronchopulmonary lesions and mortality),rats [4],significant action in the protection of the bronchi and lungs
same,laryngo-bronchial secretion,"rabbits [5]; oral, rectal or inhalation, 50 and 200 mg/kg, every hour for four hours",increase in a significant manner and proportionally to the dosage
same,laryngo-tracheal secretion,rabbits [5]; [11],equal to the activity of α-mercaptopropionylglycine
same,tracheo-bronchial secretion,rabbits [5]; [11],more substantial activity
same,reduction of the period of sleep induced by Nembutal,rats [6],very substantial
same,concentration in the kidney,[7],high concentrations in the kidney
same,distribution in the organs,[7],sufficiently homogenous
same,content in the lungs with respect to α-mercaptopropionylglycine,[7]; statistically significant,substantially higher content in the lungs
same,Chromatographic Impurities,"[8]; Powder, 60°, 320 hours",Absent
same,Chromatographic Impurities,"[8]; Powder, 70°, 120 hours",Absent
same,Chromatographic Impurities,"[8]; Powder, 70°, 240 hours",Absent
same,Chromatographic Impurities,"[8]; Powder, 80°, 45 hours",Absent
same,Chromatographic Impurities,"[8]; Powder, 80°, 180 hours",Absent
same,Chromatographic Impurities,"[8]; Solution (500 mg in 10 cc water), 60°, 0 hours",Absent
same,Chromatographic Impurities,"[8]; Solution (500 mg in 10 cc water), 60°, 320 hours",Absent
same,degraded at 640 h,"[8]; Solution (500 mg in 10 cc water), 60°, 640 hours, read-out: Chromatographic Impurities",0.5%
same,degraded at 960 h,"[8]; Solution (500 mg in 10 cc water), 60°, 960 hours, read-out: Chromatographic Impurities",0.7%
same,degraded at 1280 h,"[8]; Solution (500 mg in 10 cc water), 60°, 1280 hours, read-out: Chromatographic Impurities",1.2%
same,degraded at 1600 h,"[8]; Solution (500 mg in 10 cc water), 60°, 1600 hours, read-out: Chromatographic Impurities",1.3%
same,Chromatographic Impurities,"[8]; Solution (500 mg in 10 cc water), 70°, 180 hours",Absent
same,degraded at 240 h,"[8]; Solution (500 mg in 10 cc water), 70°, 240 hours, read-out: Chromatographic Impurities",1.1%
same,degraded at 480 h,"[8]; Solution (500 mg in 10 cc water), 70°, 480 hours, read-out: Chromatographic Impurities",1.2%
same,Chromatographic Impurities,"[8]; Solution (500 mg in 10 cc water), 80°, 45 hours",Absent
same,degraded at 90 h,"[8]; Solution (500 mg in 10 cc water), 80°, 90 hours, read-out: Chromatographic Impurities",1.2%
same,degraded at 120 h,"[8]; Solution (500 mg in 10 cc water), 80°, 120 hours, read-out: Chromatographic Impurities",1.3%
same,stability to light,Stability to light,undergoes no change
same,stability to moisture,Stability to moisture; 50° C.,"slight yellow color, but no degradation products"
same,stability to moisture,Stability to moisture; room temperature (t.a.),no decomposition
same,stability in reducing medium,[9],undergoes no physico-chemical change or organoleptic change
same,solubility,Solubility; saturated solution of sodium bicarbonate and other basic solutions,soluble
same,solubility,Solubility; warm ethanol,soluble
same,solubility,Solubility; water,insoluble
same,clinical tolerance with respect to gastric reactions,[10],optimum clinical tolerance
